Measurements published in patent publication US20230126569A1, “COMPOSITION FOR […] OF SARS-CoV-2 TO ACE2 PROTEIN” (priority 2020, published 2023).
Several values for one entry are separate records, joined by “and”; a condition that tells them apart may be missing. Identical values can stand only once.

Assays:
[1] = molecular target: T1, binding between the spike protein of SARS-CoV-2 and the ACE2 protein (Severe acute respiratory syndrome coronavirus 2, UniProt P0DTC2)
[2] = molecular target: T1, binding between the spike protein of SARS-CoV-2 and the ACE2 protein; remark: listed apart in the source

SMILES: [O][Cl+][O-] [Chlorine Dioxide, chlorine dioxide]
- Luminescence Intensity (counts/sec × 1000, average ± standard deviation, n = 3) [1]: 1322 ± 45 counts/sec × 1000 and 1072 ± 47 counts/sec × 1000
- binding between the spike protein and the ACE2 protein [2]: significantly reduced
